The text below walks through data of PubChem BioAssay AID858 (Vanderbilt High Throughput Screening Facility, 2007).

In general, EC50 refers to the midpoint of the concentration-response curve.

Active and inactive are the calls of the source.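 How the source made its calls: active means at least two of three replicate dose series yielding a converging curve fit, whether well or thinly supported; inactive means the rest.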

The target in the test is D(1A) dopamine receptor (Homo sapiens) (UniProt P21728). In words: concentration-dependent D1 reporter signal change – cell-based, CRE-luciferase, HEK293, dopamine EC30, D1 allosteric modulator project, dose response (AID 858).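 Further: HEK 293 cells bearing human D1 receptor stimulated by dopamine at its EC30; luciferase light from a cAMP response element reporter gene.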
Chain of D(1A) dopamine receptor (Homo sapiens) (P21728 whole entry, looked up): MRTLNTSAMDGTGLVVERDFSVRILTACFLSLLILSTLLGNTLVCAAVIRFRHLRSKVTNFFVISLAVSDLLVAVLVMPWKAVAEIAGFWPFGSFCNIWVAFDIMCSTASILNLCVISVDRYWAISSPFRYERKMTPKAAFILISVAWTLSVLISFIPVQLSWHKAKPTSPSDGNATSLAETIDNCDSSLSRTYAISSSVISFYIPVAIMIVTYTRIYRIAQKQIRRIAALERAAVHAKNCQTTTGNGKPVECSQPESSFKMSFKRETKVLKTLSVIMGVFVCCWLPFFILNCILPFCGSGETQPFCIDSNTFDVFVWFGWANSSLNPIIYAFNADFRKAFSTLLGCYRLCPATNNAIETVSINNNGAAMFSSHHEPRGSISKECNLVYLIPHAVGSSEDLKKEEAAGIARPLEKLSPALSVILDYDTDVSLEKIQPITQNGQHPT
On to `C1CCC(c2nn3c(-c4n[nH]c5c4CCC5)nnc3s2)CC1`, for which the EC50 is 1140 nM.
With `CCCCSc1nc2c(c(=O)n1CC)SC(C)C2` (centres undefined), the result was inactive.
As to `CCOC(=O)Cc1[nH]nc2c1C(c1cccc(OC)c1OC)C(C#N)=C(N)O2` (centres undefined), the outcome was inactive.
Still for that read-out and setting: the result for `O=C(OCCCCN1C(=O)c2ccccc2C1=O)c1n[nH]c2ccccc12` reads “inactive”; that for `c1ccc(COc2nsnc2N2CCOCC2)cc1`, “inactive”; that for `NC(=O)c1c(NC(=O)CSc2nnc(-c3ccco3)n2-c2ccccc2)sc2c1CCC2`, “inactive”.
The same measure, in the same setting: the result for `O=c1c2cc(Cl)ccc2[nH]c(=S)n1Cc1ccco1` reads “inactive”; that for `COC(=O)c1sc(=S)sc1C(=O)OC`, “inactive”; that for `N#CC1=C(N)n2c(s/c(=C\c3ccco3)c2=O)=C(C#N)C1c1ccco1` (centres undefined), “inactive”.
On the same count and under the same terms, the result for `Cc1nc2sc3c(c2c(=O)[nH]1)CCC3` reads “inactive”; that for `Clc1cccc(Nc2c3c(nc4ncnn24)CCC3)c1`, “inactive”; that for `COc1ccc(-c2csc3nc(C)n(-n4cccc4)c(=O)c23)cc1OC`, “inactive”.
On to `NC(=O)COc1ccc(NC(=O)OCc2ccccc2)cc1`, for which the outcome was inactive.
Same read-out and setting: then `Clc1ccccc1-c1nnc2sc(-c3ccc(Br)o3)nn12`, with “inactive”; and `COc1ccc(CCNc2nnc(Sc3nnnn3-c3ccccc3)s2)cc1OC`, with “inactive”; and `CC(=O)N=c1sc2nc3ccccc3nc2n1N(C(C)=O)C(C)=O`, with “inactive”.
On the same count and under the same terms, then `CCOc1cc(C2CC(=O)NC(SCC)=C2C#N)ccc1O` (centres undefined), with “inactive”; and `Nc1nc(CN2CCN(c3ccccn3)CC2)nc(Nc2ccc(Cl)cc2)n1`, with “inactive”.
On the same count and under the same terms, then `O=C1N(CN2CCN(c3cccc(Cl)c3)CC2)c2ccccc2C12OCCCO2`, with “inactive”.
Regarding `CCCNc1nc2c(c(=O)[nH]c(=O)n2C)n1CCc1ccccc1`, the outcome was inactive.
Take `Cc1[nH]n(-c2ccccc2)c(=O)c1S(=O)(=O)c1ccccc1`: the outcome was inactive.
In the case of `COc1ccc(-c2coc3cc(O)cc(O)c3c2=O)cc1`, the result was inactive.
As to `CCOC(=O)N1CCN(C(=O)C(C)(C)Oc2ccc(Cl)cc2)CC1`, the result was inactive.
Same read-out and setting: then `CCCCNC(=O)c1ccc2nc(-c3ccco3)c(-c3ccco3)nc2c1`, with “inactive”; and `CCN(CC)CCOc1c(Br)ccc2c1sc1nc3n(c(=O)c12)CCC3`, with “inactive”; and `CCc1nc(N2CCCCC2)c2oc3ccccc3c2n1`, with “inactive”.
Still for that read-out and setting: the result for `CCc1ccc2[nH]c(=O)c(CN(Cc3nnnn3C3CCCC3)C3CCCCC3)cc2c1` reads “inactive”; that for `Fc1ccc(-c2cc(C(F)(F)F)nc(-n3cncn3)n2)cc1`, “inactive”.
Still for that read-out and setting: then `COc1ccc(-c2noc(CCC(N)=O)n2)cc1OC`, with “inactive”.
Turning to `C=CCn1c(=O)c2c(C)c(C)sc2n2c(Nc3ccc(OC)cc3)nnc12`, the outcome was inactive.
Still for that read-out and setting: the result for `Cc1csc2c(C#N)c(=O)c3c(n12)CCC3` reads “inactive”.
On the same count and under the same terms, the result for `CCCn1c(=O)c2ccccc2n2c(SCc3nc4ccccc4s3)nnc12` reads “inactive”.
For the compound `CN(C)c1oc(-c2ccccc2Cl)nc1C#N`, the outcome was inactive.
`CSc1nc2c(c(=O)n1-c1ccccc1)SCC2`: the outcome was inactive.
The same measure, in the same setting: the result for `O=C1COc2ccccc2N1Cc1ccccc1Cl` reads “inactive”; that for `c1csc(-c2nn3c(Cn4nnc5ccccc54)nnc3s2)c1`, “inactive”.
Same read-out and setting: then `COC(=O)c1c(-c2ccc(F)cc2)csc1NC(=O)c1ccco1`, with “inactive”; and `CCN(CCCNC(=O)CN(C)S(=O)(=O)c1cccc2nsnc12)c1cccc(C)c1`, with “inactive”; and `c1ccc(Cn2nnc3c(N4CCc5ccccc54)ncnc32)cc1`, with “inactive”.
Same read-out and setting: then `COc1ccc(-c2coc3cc(O)ccc3c2=O)cc1OC`, with “inactive”.
For the compound `CSC1=NCCN1C(=O)c1ccc(Br)o1`, the outcome was inactive.
As to `Cc1cc(C)n(-c2nc3ccccc3nc2Nc2ccc(CC(=O)O)cc2)n1`, the result was inactive.
Regarding `CC(C)C1N=C2c3ccccc3N=C(SCC#N)N2C1=O` (centres undefined), the EC50 was 3140 nM.
On to `Cc1cc(=O)oc2cc(OCC(=O)NCCc3nc4ccccc4[nH]3)ccc12`, for which the outcome was inactive.
Still for that read-out and setting: the result for `CCOc1ccc(N/C(SC)=C(/C#N)C(N)=O)cc1` reads “inactive”.
On the same count and under the same terms, the result for `CCCSc1nsc(SCCC)c1C(N)=O` reads “inactive”.
As to `Cc1c(C(=O)OCC(C)C)[nH]c2c1C(=O)CC(c1ccco1)C2` (centres undefined), the concentration for a half-maximal effect (EC50) is 1570 nM.
For `Cn1c2c(c3ccccc31)CC/C2=N\O`, the outcome was inactive.
On to `N#CCCN1CCN(S(=O)(=O)c2ccc(S(=O)(=O)NC3CCCCC3)cc2)CC1`, for which the result was inactive.
Still for that read-out and setting: the result for `O=C(c1ccco1)N1CCN(c2nc(C3CC3)nc3sc4c(c23)CCCC4)CC1` reads “inactive”.
Same read-out and setting: the result for `NC(=O)c1cc(-c2ccccc2)nc(N2CCCCCC2)n1` reads “inactive”; that for `CC(=O)C1=C(C)NC(SCC(=O)c2ccc(F)cc2)=C(C#N)C1c1ccco1` (centres undefined), “inactive”.
Still for that read-out and setting: the result for `Cc1ccc(Cn2c(-n3nc(C)cc3C)nc3c2c(=O)[nH]c(=O)n3C)cc1` reads “inactive”.
Consider `Cc1ccc(-n2cnnn2)c2cccnc12`, for which the result was inactive.
With `CCOC(=O)C(O)(CCC(O)(C(=O)OCC)C(=O)OCC)C(=O)OCC`, the outcome was inactive.
On the same count and under the same terms, then `CCOC(=O)C1CCCN(C(=O)c2cc(Cl)ccc2Cl)C1` (centres undefined), with “inactive”; and `Cc1cc(NS(=O)(=O)c2ccc(NC(=O)COc3ccccc3C(C)C)cc2)no1`, with “inactive”.
For the compound `Cn1c(=O)c2c(nc(SCCCO)n2Cc2ccccc2Cl)n(C)c1=O`, the result was inactive.
On the same count and under the same terms, the result for `O=C(OCC#CCSc1nnc(-c2ccc(Br)cc2)o1)c1ccco1` reads “inactive”.
The same measure, in the same setting: then `O=C(c1cccn2c(=O)c3cc(Cl)ccc3nc12)N1CCN(Cc2ccc3c(c2)OCO3)CC1`, with “inactive”; and `CCn1c2ccccc2c2nnc(SCCCn3c(=O)[nH]c4ccccc43)nc21`, with “inactive”.
Regarding `Cc1ccc(-n2c(SCC(=O)OC(C)C)nnc2-c2cnccn2)cc1`, the outcome was inactive.
On the same count and under the same terms, then `Cc1ccccc1NC(=O)c1nc[nH]c1C(=O)NCc1ccccc1`, with “inactive”; and `CC(C)Oc1ccccc1C1CC(=O)Nc2cc3c(cc21)OCCO3` (centres undefined), with “inactive”.
Same read-out and setting: the result for `CCc1nc2ccccc2c(C(=O)OCC(=O)NCc2ccco2)c1C` reads “inactive”; that for `COc1cccc(-c2nn3c(-c4cc(C)[nH]n4)nnc3s2)c1`, “inactive”; that for `O=C1C(Cl)=C(NCC2CCCO2)C(=O)N1C1CCCCC1` (centres undefined), “inactive”.
On the same count and under the same terms, the result for `CSc1ccc(C2C(C#N)=C(N)N(c3ccccc3)C3=C2C(=O)CCC3)cc1` (centres undefined) reads “inactive”.
With `CC(C)n1c(C(O)c2ccccc2)nc2ccccc21` (centres undefined), the outcome was inactive.
The same measure, in the same setting: the result for `CCOC(=O)c1ccc(Oc2cc(C)nc(SC)n2)cc1` reads “inactive”.
On the same count and under the same terms, then `Cc1cc(NC(=O)COc2nnc(-c3ccccc3)c3ccccc23)no1`, with “inactive”; and `CCOC(=O)c1c(-c2ccncc2)csc1N`, with “inactive”; and `C=CCn1c(=S)[nH]c2nc3c(cc2c1=O)CCCC3`, with “inactive”.
On the same count and under the same terms, the result for `Cn1c(=O)c2c(-c3ccccc3)n(N3CCOCC3)cc2n(C)c1=O` reads “inactive”.
With `COC(=O)/C(=C1/Oc2cc3c(cc2S1)OCO3)C(F)(F)F`, the result was inactive.
Consider `Brc1ccc(-c2nn3c(Cc4ccccc4)nnc3s2)o1`, for which the result was inactive.
Still for that read-out and setting: the result for `CCOC(=O)N1CCN(C(=O)CCCn2c(=S)[nH]c3ccccc3c2=O)CC1` reads “inactive”; that for `Cn1c(=O)c2c(nc(SCCCC#N)n2Cc2ccccc2F)n(C)c1=O`, “inactive”.
On to `COc1ccc(OC)c(C2C=C(c3ccc(C)c(C)c3)Nc3nnnn32)c1` (centres undefined), for which the result was inactive.
On the same count and under the same terms, the result for `Cc1nnc(SCCn2c(N3CCCC(C)C3)nc3c2c(=O)[nH]c(=O)n3C)s1` (centres undefined) reads “inactive”; that for `O=C(CCSc1nc2ccccc2o1)N1CCOCC1`, “inactive”; that for `O=CN1Cc2[nH]c3ccccc3c2N(c2ccc(Cl)cc2)C1=O`, “inactive”.
Same read-out and setting: then `COc1ccc(-c2noc(-c3ccco3)n2)cc1OC`, with “inactive”; and `COc1ccc2c(c1)C(=O)N(c1ccccc1OC)C(=O)C2(C)C`, with “inactive”.
Same read-out and setting: then `Cc1cc(=O)n(CC=C(Cl)Cl)c2ccccc12`, with “inactive”; and `CN1CCN(CC(O)COCc2ccc3c(c2)OCO3)CC1` (centres undefined), with “inactive”; and `Cc1ccc(OCCN2C(=O)OC(C)(C)C2(C)O)cc1` (centres undefined), with “inactive”.
Turning to `C=CCc1c(C)nc(SC)nc1Nc1ccc(C(=O)O)cc1`, the outcome was inactive.
Same read-out and setting: then `CC(=O)c1cc(C#N)c(SCc2ccncc2)nc1C`, with “inactive”; and `Cn1cnc2c1c(=O)n(Cc1ccc(F)cc1Cl)c(=O)n2C`, with “inactive”.
Consider `CCSC(C)CC1C/C(=N/O)c2c(CC)noc2C1` (centres undefined), for which the result was inactive.
On the same count and under the same terms, then `Cc1c(C)c2ccc(OC3CCCCC3=O)cc2oc1=O` (centres undefined), with “inactive”.
Same read-out and setting: the result for `CC(=O)Nc1nc2n(n1)C(c1ccccc1)C=C(c1ccccc1)N2` (centres undefined) reads “inactive”; that for `Fc1cc(Br)ccc1Nc1nc2ccccc2n2nnnc12`, “inactive”.
On the same count and under the same terms, the result for `Cc1cc(C)n2c3c(c(C#N)c2n1)CCCC3` reads “inactive”; that for `O=c1nc2scc(-c3ccccc3)n2c2ccccc12`, “inactive”.
Consider `c1ccc(C2CC(c3ccccc3)n3ncnc3N2)cc1` (centres undefined), for which the result was inactive.
For `COc1ccc(-c2noc(CCN3C(=O)c4ccccc4C3=O)n2)cc1OC`, the EC50 is 309 nM.
Take `O=C(CCc1ccc(CCC(=O)c2cccs2)s1)c1cccs1`: the outcome was inactive.
